Converted amounts (≈) assume the structure as drawn. Where two headings read alike, the source gives them in different places.
Test: Aqueous solubility measurements
Assay type: physicochemical
Conditions: for pH: final pH of saturated solution; for solubility at 24 h: thermodynamic from solid, read-out: HPLC solubility
Description: Testing media: water, pH 1.2, 4.5, 6.8, 7.4 USP buffers, 0.01 N HCl, 0.1 N HCl, SGF, FaSSIF, FeSSIF.
The various testing media were prepared as follows:
pH 1.2 (USP): 50 mL of 0.2 M potassium chloride solution were placed in a 200 mL volumetric flask to which 85.0 mL of 0.2M hydrochloric acid solution were added followed by the addition of water to obtain the required volume.
pH 4.5 (USP): 50 mL of 0.2 M potassium biphthalate solution were placed in a 200 mL volumetric flask to which 8.8 mL of 0.2 M sodium hydroxide solution were added followed by the addition of water to obtain the required volume.
pH 6.8 (USP): 50 mL of 0.2 M monobasic potassium phosphate solution were placed in a 200 mL volumetric flask to which 22.4 mL of 0.2 M sodium hydroxide solution were added followed by the addition of water to obtain the required volume.
pH 7.4 (USP): 50 mL of 0.2 M monobasic potassium phosphate solution were placed in a 200 mL volumetric flask to which 39.1 mL of 0.2 M sodium hydroxide solution were added followed by the addition of water to obtain the required volume.
Simulated gastric fluid (SGF): 0.01 N HCl, 0.05% sodium lauryl sulfate, and 0.2% NaCl.
Fasted state simulated intestinal fluid (FaSSIF): 29 mM NaH2PO4, 3 mM Na taurocholate, 0.75 mM lecithin, 103 mM NaCl, and NaOH to obtain pH 6.5.
Fed state simulated intestinal fluid (FeSSIF): 144 mM acetic acid, 15 mM Na taurocholate, 3.75 mM lecithin, 204 mM NaCl, and NaOH to obtain pH 5.0.
Testing procedure: The tested febuxostat form was placed in each of the different media and was kept shaken for 24 hours at 25° C. Then, the saturated solution was filtered. The concentration of the febuxostat form in filtrate was determined by HPLC. The final pH was then tested. The test was conducted in duplication.

[1] = media 0.01N HCl, 24 hours at 25° C.
[2] = media 0.1N HCl, 24 hours at 25° C.
[3] = media FaSSIF, 24 hours at 25° C.
[4] = media FeSSIF, 24 hours at 25° C.
[5] = media pH 1.2 (USP), 24 hours at 25° C.
[6] = media pH 4.5 (USP), 24 hours at 25° C.
[7] = media pH 6.8 (USP), 24 hours at 25° C.
[8] = media pH 7.4 (USP), 24 hours at 25° C.
[9] = media water, shaken 24 hours at 25° C.
[10] = media water, 24 hours at 25° C.
[11] = pH1.2 USP buffer, 0.01N HCl, 0.1N HCl and SGF
[12] = pH6.8 USP buffer, pH7.4 USP buffer, FaSSIF, FeSSIF

Which results are given for `Cc1nc(-c2ccc(OCC(C)C)c(C#N)c2)sc1C(=O)O` [Form IX, 2-(3-cyano-4-isobutoxyphenyl)-4-methyl-5-thiazolecarboxylic acid]?
solubility at colon-simulated media and intestinal fluids (in words) (colon-simulated media (pHs=6.8-7.4) and intestinal fluids): improved solubility; pH [1]: 2.078; pH [2]: 1.060; pH [3]: 6.246; pH [4]: 4.983; pH (media SGF, 24 hours at 25° C.): 2.097; pH [5]: 1.242; pH [6]: 4.524; pH [7]: 6.477; pH [8]: 6.690; pH [9]: 5.403; Visual solubility [1]: Turbid + few particles; Visual solubility [2]: Turbid + few particles; HPLC solubility [3]: 606.65 µg/mL; Visual solubility [3]: Turbid; HPLC solubility [4]: 192.53 µg/mL; Visual solubility [4]: Turbid; Visual solubility (media SGF, 24 hours at 25° C.): Turbid; Visual solubility [5]: Turbid + few particles; HPLC solubility [6]: 0.78 µg/mL; Visual solubility [6]: Turbid + few particles; HPLC solubility [7]: 1409.99 µg/mL; Visual solubility [7]: Turbid + few particles; HPLC solubility [8]: 4836.10 µg/mL; Visual solubility [8]: Slightly turbid; HPLC solubility [10]: 32.99 µg/mL; Visual solubility [10]: Turbid + few particles; aqueous solubility (in words) [11]: poor solubility; aqueous solubility (in words) [12]: good solubility

Which results are given for `Cc1nc(-c2ccc(OCC(C)C)c(C#N)c2)sc1C(=O)O` [Form V, 2-(3-cyano-4-isobutoxyphenyl)-4-methyl-5-thiazolecarboxylic acid]?
solubility at 24 h (USP buffer pH 6.8, 25 °C, pH 6.8, aqueous buffer, media pH 6.8 (USP), 24 hours at 25° C.): 1120 µg/mL (≈ 3550 µM); pH [1]: 2.003; pH [2]: 0.951; pH [3]: 6.384; pH [4]: 4.995; pH (media SGF, 24 hours at 25° C.): 2.108; pH [5]: 1.157; pH [6]: 4.452; pH [7]: 6.641; pH [8]: 6.960; pH [9]: 7.520; Visual solubility [1]: few particles; Visual solubility [2]: few particles; HPLC solubility [3]: 513.37 µg/mL; Visual solubility [3]: Turbid + few particles; HPLC solubility [4]: 180.61 µg/mL; Visual solubility [4]: Turbid + few particles; Visual solubility (media SGF, 24 hours at 25° C.): few particles; Visual solubility [5]: few particles; HPLC solubility [6]: 0.38 µg/mL; Visual solubility [6]: Turbid + few particles; Visual solubility [7]: Turbid + few particles; HPLC solubility [8]: 4317.12 µg/mL; Visual solubility [8]: Slightly turbid; Visual solubility [10]: Turbid + few particles; aqueous solubility (in words) [11]: poor solubility; aqueous solubility (in words) [12]: good solubility; solubility at 24 h (water, 25 °C, water, media water, 24 hours at 25° C.): 54.9 µg/mL (≈ 173 µM)

For `Cc1nc(-c2ccc(OCC(C)C)c(C#N)c2)sc1C(=O)O` [Form XI, 2-(3-cyano-4-isobutoxyphenyl)-4-methyl-5-thiazolecarboxylic acid], which pH [1] is on record?
The pH was 1.981.

What about the pH [2] of the same compound?
The pH was 0.967.

What about the pH [3] of the same compound?
The pH was 6.336.

What about the pH [4] of the same compound?
Its pH is 4.998.

And the pH (media SGF, 24 hours at 25° C.)?
Its pH is 2.114.

What about the pH [5] of the same compound?
The pH was 1.132.

What about the pH [6] of the same compound?
The pH was 4.479.

And the pH [7]?
The pH was 6.684.

What about the pH [8] of the same compound?
Its pH is 6.905.

What about the pH [9] of the same compound?
Its pH is 8.106.

And the Visual solubility [1]?
The Visual solubility was “few particles”.

And the Visual solubility [2]?
Its Visual solubility is “few particles”.

What about the “HPLC solubility” value [3] of the same compound?
Its value is 521.19 µg/mL.

What about the Visual solubility [3] of the same compound?
The Visual solubility was “Turbid + few particles”.

What about the “HPLC solubility” value [4] of the same compound?
Its value is 149.95 µg/mL.

What about the Visual solubility [4] of the same compound?
The Visual solubility was “Turbid + few particles”.

And the Visual solubility (media SGF, 24 hours at 25° C.)?
Its Visual solubility is “few particles”.

What about the Visual solubility [5] of the same compound?
The Visual solubility was “few particles”.

And the “HPLC solubility” value [6]?
The value was 0.49 µg/mL.

And the Visual solubility [6]?
The Visual solubility was “few particles”.

What about the “HPLC solubility” value [7] of the same compound?
The value was 931.90 µg/mL.

What about the Visual solubility [7] of the same compound?
The Visual solubility was “Turbid + few particles”.

What about the “HPLC solubility” value [8] of the same compound?
Its value is 4464.94 µg/mL.

What about the Visual solubility [8] of the same compound?
Its Visual solubility is “Slightly turbid + few”.

What about the “HPLC solubility” value [10] of the same compound?
The value was 33.82 µg/mL.

What about the Visual solubility [10] of the same compound?
The Visual solubility was “Turbid + few particles”.

What about the “aqueous solubility (in words)” value [11] of the same compound?
Its value is “poor solubility”.

What about the “aqueous solubility (in words)” value [12] of the same compound?
Its value is “good solubility”.
